Our source for the IC50 values is US10246426B2, “Triazole compounds as T-type calcium channel blockers” (IDORSIA PHARMACEUTICALS LTD, priority 2014, dated 2019).

Cav3.2, sequence (O95180 whole entry, looked up): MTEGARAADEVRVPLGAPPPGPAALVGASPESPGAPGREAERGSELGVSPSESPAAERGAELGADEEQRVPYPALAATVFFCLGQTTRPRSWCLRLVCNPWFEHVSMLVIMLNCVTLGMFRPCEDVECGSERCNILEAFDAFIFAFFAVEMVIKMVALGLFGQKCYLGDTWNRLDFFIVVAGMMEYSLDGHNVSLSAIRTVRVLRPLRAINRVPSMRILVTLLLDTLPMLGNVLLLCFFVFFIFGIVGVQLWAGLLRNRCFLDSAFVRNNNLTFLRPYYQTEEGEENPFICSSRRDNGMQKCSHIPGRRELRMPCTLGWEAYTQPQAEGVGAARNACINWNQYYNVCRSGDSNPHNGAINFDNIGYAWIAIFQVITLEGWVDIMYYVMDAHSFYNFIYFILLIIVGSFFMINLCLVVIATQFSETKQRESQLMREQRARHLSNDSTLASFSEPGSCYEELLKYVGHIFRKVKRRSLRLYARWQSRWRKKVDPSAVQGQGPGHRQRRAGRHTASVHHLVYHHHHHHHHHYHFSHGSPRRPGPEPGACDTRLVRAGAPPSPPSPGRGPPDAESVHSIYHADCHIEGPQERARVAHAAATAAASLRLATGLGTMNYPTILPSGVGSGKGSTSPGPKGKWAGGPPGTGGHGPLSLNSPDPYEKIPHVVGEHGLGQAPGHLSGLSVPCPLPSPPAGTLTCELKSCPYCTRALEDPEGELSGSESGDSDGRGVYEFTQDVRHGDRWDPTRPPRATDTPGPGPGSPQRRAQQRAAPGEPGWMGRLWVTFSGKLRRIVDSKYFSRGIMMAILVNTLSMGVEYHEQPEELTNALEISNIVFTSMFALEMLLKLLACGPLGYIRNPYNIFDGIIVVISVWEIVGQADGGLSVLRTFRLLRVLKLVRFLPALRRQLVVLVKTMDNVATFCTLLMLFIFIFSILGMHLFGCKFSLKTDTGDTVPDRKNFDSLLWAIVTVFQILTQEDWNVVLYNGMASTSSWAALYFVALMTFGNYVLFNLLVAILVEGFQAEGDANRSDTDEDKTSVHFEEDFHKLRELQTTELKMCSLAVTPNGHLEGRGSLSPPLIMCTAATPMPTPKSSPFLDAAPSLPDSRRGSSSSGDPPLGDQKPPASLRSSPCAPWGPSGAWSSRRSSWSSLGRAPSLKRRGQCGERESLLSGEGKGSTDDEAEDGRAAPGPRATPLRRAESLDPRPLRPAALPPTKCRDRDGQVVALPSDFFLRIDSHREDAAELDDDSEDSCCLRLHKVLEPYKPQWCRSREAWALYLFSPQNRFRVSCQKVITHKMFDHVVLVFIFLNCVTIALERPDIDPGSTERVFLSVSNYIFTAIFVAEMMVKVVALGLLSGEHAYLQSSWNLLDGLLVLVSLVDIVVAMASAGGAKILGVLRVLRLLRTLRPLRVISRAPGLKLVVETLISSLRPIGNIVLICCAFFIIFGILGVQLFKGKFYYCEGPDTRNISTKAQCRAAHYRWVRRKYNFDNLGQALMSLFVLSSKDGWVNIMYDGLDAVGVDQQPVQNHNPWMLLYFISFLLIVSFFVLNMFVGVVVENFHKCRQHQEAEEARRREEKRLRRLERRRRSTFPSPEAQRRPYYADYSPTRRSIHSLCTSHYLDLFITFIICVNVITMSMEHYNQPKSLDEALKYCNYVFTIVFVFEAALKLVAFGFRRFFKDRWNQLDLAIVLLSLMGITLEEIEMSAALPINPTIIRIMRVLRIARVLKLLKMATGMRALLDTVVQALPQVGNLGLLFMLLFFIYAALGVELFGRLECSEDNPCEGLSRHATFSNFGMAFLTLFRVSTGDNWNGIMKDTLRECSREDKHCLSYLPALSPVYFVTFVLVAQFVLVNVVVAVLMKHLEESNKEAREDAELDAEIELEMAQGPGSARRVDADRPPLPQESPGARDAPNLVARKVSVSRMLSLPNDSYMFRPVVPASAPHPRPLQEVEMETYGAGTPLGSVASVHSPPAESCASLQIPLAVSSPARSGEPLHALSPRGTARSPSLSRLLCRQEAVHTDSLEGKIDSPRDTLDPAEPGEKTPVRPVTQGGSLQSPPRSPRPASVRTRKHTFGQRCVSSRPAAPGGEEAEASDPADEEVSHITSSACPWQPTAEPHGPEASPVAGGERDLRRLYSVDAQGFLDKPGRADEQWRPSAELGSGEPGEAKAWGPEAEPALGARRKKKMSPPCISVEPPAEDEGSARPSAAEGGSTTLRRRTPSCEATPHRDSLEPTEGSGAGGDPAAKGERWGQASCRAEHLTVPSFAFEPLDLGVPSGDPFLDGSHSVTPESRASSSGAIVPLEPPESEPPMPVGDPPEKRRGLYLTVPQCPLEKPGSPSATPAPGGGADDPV

This assay concerns the target Cav3.2 (Homo sapiens, UniProt O95180). As to the kind of experiment: Calcium flux FLIPR assay, HEK293 cells recombinantly expressing Cav3.2. The settings on record: Cav3.2-channel, Ca2+ entry stimulated by 10 mM CaCl2. It counts as cell-based. The method in brief: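 Fluo-4-loaded HEK293 cells stably expressing Cav3.2, seeded overnight at 37 °C; compounds diluted in TEAC buffer (pH 7.2) and preincubated 3 min before Ca2+ entry triggered with CaCl2 at 10 mM final. Area under FLIPR fluorescence trace fitted sigmoidally; IC50 relative to vehicle signal.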
Background: Calcium assays in cells follow changes in intracellular calcium, usually with a dye or a luminescent sensor.
For `COc1c(F)cc(Cn2ncc(NC(=O)Cc3ccc(N4CCCC4)nc3)n2)cc1F` [Example 81, N-[2-(3,5-Difluoro-4-methoxy-benzyl)-2H-[1,2,3]triazol-4-yl]-2-(6-pyrrolidin-1-yl-pyridin-3-yl)-acetamide], the IC50 was determined as 28 nM.

For `CC1(c2ccc(CC(=O)Nc3cnn(Cc4ccc(OC(F)(F)F)cc4)n3)cc2)COC1` [Example 93, 2-[4-(3-Methyl-oxetan-3-yl)-phenyl]-N-[2-(4-trifluoromethoxy-benzyl)-2H-[1,2,3]triazol-4-yl]-acetamide], the 50% inhibitory concentration (IC50) worked out at 15 nM.

With `Cc1cn(C)c2ccc(CC(=O)Nc3cnn(Cc4ccc(C#N)cn4)n3)cc12` [Example 243, N-[2-(5-Cyano-pyridin-2-ylmethyl)-2H-[1,2,3]triazol-4-yl]-2-(1,3-dimethyl-1H-indol-5-yl)-acetamide], the IC50 came out at 110 nM.

`COc1ccc(Cn2ncc(NC(=O)Cc3ccc(OCC4COC4)cc3)n2)cc1F` [Example 120, N-[2-(3-Fluoro-4-methoxy-benzyl)-2H-[1,2,3]triazol-4-yl]-2-[4-(oxetan-3-ylmethoxy)-phenyl]-acetamide]: the half-maximal inhibitory concentration (IC50) amounted to 550 nM.

Regarding `Cc1ccc(Cn2ncc(NC(=O)Cc3ccc(C(C)(C)C)cc3)n2)cc1` [Example 66, 2-(4-tert-Butyl-phenyl)-N-[2-(4-methyl-benzyl)-2H-[1,2,3]triazol-4-yl]-acetamide], the IC50 was found to be 70 nM.

In the case of `CCn1ncc2cc(CC(=O)Nc3cnn(Cc4cc(F)c(F)c(OC)c4)n3)ccc21` [Example 220, N-[2-(3,4-Difluoro-5-methoxy-benzyl)-2H-[1,2,3]triazol-4-yl]-2-(1-ethyl-1H-indazol-5-yl)-acetamide], the IC50 is 190 nM.

Turning to `CCn1ncc2cc(CC(=O)Nc3cnn(Cc4ccc(C#N)cc4)n3)ccc21` [Example 103, N-[2-(4-Cyano-benzyl)-2H-[1,2,3]triazol-4-yl]-2-(1-ethyl-1H-indazol-5-yl)-acetamide], the IC50 worked out at 74 nM.

As to `Cc1nn(C)c2ccc(CC(=O)Nc3cnn(Cc4ccc(C#N)c(F)c4)n3)cc12` [Example 177, N-[2-(4-Cyano-3-fluoro-benzyl)-2H-[1,2,3]triazol-4-yl]-2-(1,3-dimethyl-1H-indazol-5-yl)-acetamide], the IC50 came to 33 nM.

As to `CCCCc1n[nH]c2ccc(CC(=O)Nc3cnn(Cc4ccc(F)c(F)c4)n3)cc12` [Example 32, 2-(3-Butyl-1H-indazol-5-yl)-N-[2-(3,4-difluoro-benzyl)-2H-[1,2,3]triazol-4-yl]-acetamide], the IC50 is 74 nM.

As to `Cn1ccc2cc(CC(=O)Nc3cnn(Cc4ccc(OC(F)(F)F)cc4)n3)ccc21` [Example 91, 2-(1-Methyl-1H-indol-5-yl)-N-[2-(4-trifluoromethoxy-benzyl)-2H-[1,2,3]triazol-4-yl]-acetamide], the IC50 turned out to be 7.4 nM.

With `O=C(Cc1ccc(C2(C(F)(F)F)CC2)cc1)Nc1cnn(Cc2ccc(OC(F)F)c(F)c2)n1` [Example 181, N-[2-(4-Difluoromethoxy-3-fluoro-benzyl)-2H-[1,2,3]triazol-4-yl]-2-[4-(1-trifluoromethyl-cyclopropyl)-phenyl]-acetamide], the IC50 worked out at 86 nM.

As to `CCN(CC)c1ccc(CC(=O)Nc2cnn(Cc3ccc(OC)c(OC)c3)n2)cn1` [Example 47, 2-(6-Diethylamino-pyridin-3-yl)-N-[2-(3,4-dimethoxy-benzyl)-2H-[1,2,3]triazol-4-yl]-acetamide], the IC50 was 560 nM.

For `COC1(c2ccc(CC(=O)Nc3cnn(Cc4ccc(C#N)cc4)n3)cc2)COC1` [Example 237, N-[2-(4-Cyano-benzyl)-2H-[1,2,3]triazol-4-yl]-2-[4-(3-methoxy-oxetan-3-yl)-phenyl]-acetamide], the IC50 worked out at 200 nM.

In the case of `COc1cc(Cn2ncc(NC(=O)Cc3ccc4c(cnn4C)c3)n2)ccc1F` [Example 151, N-[2-(4-Fluoro-3-methoxy-benzyl)-2H-[1,2,3]triazol-4-yl]-2-(1-methyl-1H-indazol-5-yl)-acetamide], the IC50 turned out to be 73 nM.

For the molecule `O=C(Cc1ccc(N2CCC(F)(F)C2)nc1)Nc1cnn(Cc2ccc(F)c(F)c2)n1` [Example 17, N-[2-(3,4-Difluoro-benzyl)-2H-[1,2,3]triazol-4-yl]-2-[6-(3,3-difluoro-pyrrolidin-1-yl)-pyridin-3-yl]-acetamide], the IC50 was found to be 7.3 nM.

On to `COC1(c2ccc(CC(=O)Nc3cnn(Cc4ccc(C)c(C#N)c4)n3)cc2)COC1` [Example 206, N-[2-(3-Cyano-4-methyl-benzyl)-2H-[1,2,3]triazol-4-yl]-2-[4-(3-methoxy-oxetan-3-yl)-phenyl]-acetamide], for which the IC50 was found to be 900 nM.

For `N#Cc1ccc(Cn2ncc(NC(=O)Cc3ccc(OC4CC(F)(F)C4)cc3)n2)cc1` [Example 196, N-[2-(4-Cyano-benzyl)-2H-[1,2,3]triazol-4-yl]-2-[4-(3,3-difluoro-cyclobutoxy)-phenyl]-acetamide], the IC50 turned out to be 41 nM.

Take `O=C(Cc1ccc2cc[nH]c2c1)Nc1cnn(Cc2ccc(F)c(F)c2)n1` [Example 8, N-[2-(3,4-Difluoro-benzyl)-2H-[1,2,3]triazol-4-yl]-2-(1H-indol-6-yl)-acetamide]: the IC50 stood at 37 nM.

In the case of `COc1c(F)cc(Cn2ncc(NC(=O)Cc3ccc(OC4CC(F)(F)C4)cc3)n2)cc1F` [Example 146, 2-[4-(3,3-Difluoro-cyclobutoxy)-phenyl]-N-[2-(3,5-difluoro4-methoxy-benzyl)-2H-[1,2,3]triazol-4-yl]-acetamide], the IC50 stood at 810 nM.

In the case of `Cn1ncc2cc(CC(=O)Nc3cnn(Cc4ccc(OC(F)(F)F)cc4)n3)ccc21` [Example 92, 2-(1-Methyl-1H-indazol-5-yl)-N-[2-(4-trifluoromethoxy-benzyl)-2H-[1,2,3]triazol-4-yl]-acetamide], the concentration for half-maximal inhibition (IC50) was found to be 9.9 nM.

In the case of `COc1ccc(Cn2ncc(NC(=O)Cc3ccc(N4CCCC4)nc3)n2)cc1OC` [Example 51, N-[2-(3,4-Dimethoxy-benzyl)-2H-[1,2,3]triazol-4-yl]-2-(6-pyrrolidin-1-yl-pyridin-3-yl)-acetamide], the IC50 is 600 nM.

With `COc1ccc(Cn2ncc(NC(=O)Cc3ccc(N4CCC(F)(F)C4)nc3)n2)cc1` [Example 59], the IC50 is 60 nM.

`O=C(Cc1ccc2[nH]nc(C(F)(F)F)c2c1)Nc1cnn(Cc2ccc(F)c(F)c2)n1` [Example 39, N-[2-(3,4-Difluoro-benzyl)-2H-[1,2,3]triazol-4-yl]-2-(3-trifluoromethyl-1H-indazol-5-yl)-acetamide]: the IC50 turned out to be 280 nM.

As to `Cn1ncc2cc(CC(=O)Nc3cnn(Cc4ccc(C#N)c(F)c4)n3)ccc21` [Example 76, N-[2-(4-Cyano-3-fluoro-benzyl)-2H-[1,2,3]triazol-4-yl]-2-(1-methyl-1H-indazol-5-yl)-acetamide], the IC50 amounted to 120 nM.

With `COc1c(F)cc(Cn2ncc(NC(=O)Cc3ccc4cnn(C)c4c3)n2)cc1F` [Example 142, N-[2-(3,5-Difluoro-4-methoxy-benzyl)-2H-[1,2,3]triazol-4-yl]-2-(1-methyl-1H-indazol-6-yl)-acetamide], the IC50 is 88 nM.

As to `Cc1cc(Cn2ncc(NC(=O)Cc3ccc4cnn(C)c4c3)n2)ccc1C#N` [Example 163, N-[2-(4-Cyano-3-methyl-benzyl)-2H-[1,2,3]triazol-4-yl]-2-(1-methyl-1H-indazol-6-yl)-acetamide], the IC50 was determined as 330 nM.

As to `O=C(Cc1ccc(C2(F)COC2)cc1)Nc1cnn(Cc2ccc(F)c(F)c2)n1` [Example 14, N-[2-(3,4-Difluoro-benzyl)-2H-[1,2,3]triazol-4-yl]-2-[4-(3-fluoro-oxetan-3-yl)-phenyl]-acetamide], the IC50 is 17 nM.

As for `Cc1ccc(Cn2ncc(NC(=O)Cc3ccc(N4CCC(F)(F)C4)nc3)n2)cc1C#N` [Example 211, N-[2-(3-Cyano-4-methyl-benzyl)-2H-[1,2,3]triazol-4-yl]-2-[6-(3,3-difluoro-pyrrolidin-1-yl)-pyridin-3-yl]-acetamide], the IC50 was 82 nM.

Take `COc1cc(Cn2ncc(NC(=O)Cc3ccc(C(C)(C)C)cc3)n2)cc(F)c1F` [Example 218, 2-(4-tert-Butyl-phenyl)-N-[2-(3,4-difluoro-5-methoxy-benzyl)-2H-[1,2,3]triazol-4-yl]-acetamide]: the IC50 was found to be 590 nM.

Regarding `N#Cc1ccc(Cn2ncc(NC(=O)Cc3ccc(S(F)(F)(F)(F)F)cc3)n2)cc1F` [Example 232, N-(2-(4-cyano-3-fluorobenzyl)-2H-1,2,3-triazol-4-yl)-2-(4-(pentafluoro-λ6-sulfanyl)phenyl)acetamide], the IC50 came to 110 nM.

As to `N#Cc1ccc(Cn2ncc(NC(=O)Cc3ccc(OCC4(F)COC4)cc3)n2)cc1` [Example 194, N-[2-(4-Cyano-benzyl)-2H-[1,2,3]triazol-4-yl]-2-[4-(3-fluoro-oxetan-3-ylmethoxy)-phenyl]-acetamide], the IC50 came out at 340 nM.

With `CCOc1ccc(Cn2ncc(NC(=O)Cc3ccc(C(C)C)cc3)n2)cc1` [Example 44, N-[2-(4-Ethoxy-benzyl)-2H-[1,2,3]triazol-4-yl]-2-(4-isopropyl-phenyl)-acetamide], the IC50 stood at 40 nM.

`Cc1ccc(Cn2ncc(NC(=O)Cc3ccc(C4(C)COC4)cc3)n2)cc1` [Example 67, N-[2-(4-Methyl-benzyl)-2H-[1,2,3]triazol-4-yl]-2-[4-(3-methyl-oxetan-3-yl)-phenyl]-acetamide]: the IC50 was 66 nM.

For `COc1cc(Cn2ncc(NC(=O)Cc3ccc(C4(C(F)(F)F)CC4)cc3)n2)ccc1F` [Example 113, N-[2-(4-Fluoro-3-methoxy-benzyl)-2H-[1,2,3]triazol-4-yl]-2-[4-(1-trifluoromethyl-cyclopropyl)-phenyl]-acetamide], the concentration for half-maximal inhibition (IC50) turned out to be 230 nM.

With `COc1cc(Cn2ncc(NC(=O)Cc3ccc(C4(OC)COC4)cc3)n2)ccc1F` [Example 110, N-[2-(4-Fluoro-3-methoxy-benzyl)-2H-[1,2,3]triazol-4-yl]-2-[4-(3-methoxy-oxetan-3-yl)-phenyl]-acetamide], the IC50 is 140 nM.

Consider `Cn1ccc2cc(CC(=O)Nc3cnn(Cc4ccc(OC(F)F)cc4)n3)ccc21` [Example 89, N-[2-(4-Difluoromethoxy-benzyl)-2H-[1,2,3]triazol-4-yl]-2-(1-methyl-1H-indol-5-yl)-acetamide], for which the half-inhibitory concentration (IC50) turned out to be 20 nM.

As a reminder, the IC50 is the concentration needed to halve the response being measured.
